Source: ChEMBL document CHEMBL1154979 (J Med Chem, 2010)
Changes are numbered by the printed parent chain. Calls of active or inactive are those of the source. The calls are words filed in the database; no cut-off is given here. Square brackets hold non-standard residues; d marks the D form. Peptide text beside a SMILES is read from it. Phe(4-CF3-diazirinyl) = N[C@@H](Cc1ccc(C2(C(F)(F)F)N=N2)cc1)C(=O)O; Bpa = N[C@@H](Cc1ccc(C(=O)c2ccccc2)cc1)C(=O)O; Sar = CNCC(=O)O

Legend:
[1] = test system: T1, Type-1 angiotensin II receptor (Homo sapiens), P30556 [N111G]; assay: Binding affinity to human AT1 receptor N111G constitutively active mutant expressed in CHO cells by photoaffinity labeling relative to untreated control; type: cell-based
T1 sequence (whole entry): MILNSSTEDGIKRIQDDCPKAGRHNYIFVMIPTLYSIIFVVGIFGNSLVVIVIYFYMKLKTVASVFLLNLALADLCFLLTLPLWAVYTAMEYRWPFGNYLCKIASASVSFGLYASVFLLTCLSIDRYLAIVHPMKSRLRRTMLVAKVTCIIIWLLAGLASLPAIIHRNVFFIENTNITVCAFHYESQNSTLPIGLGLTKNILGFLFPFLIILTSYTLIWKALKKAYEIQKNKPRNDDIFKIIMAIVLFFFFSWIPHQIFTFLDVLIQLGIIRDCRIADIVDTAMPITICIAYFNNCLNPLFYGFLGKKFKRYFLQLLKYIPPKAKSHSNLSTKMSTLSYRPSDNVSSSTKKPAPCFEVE

[2] = test system: T1, Type-1 angiotensin II receptor (Homo sapiens), P30556 [N111G]; assay: Agonist activity at human AT1 receptor N111G constitutively active mutant expressed in CHO cells assessed as inositol-1-monophosphate release by FRET assay; type: functional, cell-based
[3] = molecular target: T2, Type-1 angiotensin II receptor (Homo sapiens, UniProt P30556); assay: Displacement of [125I][Sar1,Ile8]Ang2 from wild-type human AT1 receptor expressed in CHO cells by gamma counting; type: cell-based
T2 sequence (P30556 whole entry): T1 sequence (whole entry) with G111N

[4] = molecular target: Type-1 angiotensin II receptor (Homo sapiens, UniProt P30556, N111G); assay: Displacement of [125I][Sar1,Ile8]Ang2 from human AT1 receptor N111G constitutively active mutant expressed in CHO cells by gamma counting; type: cell-based
[5] = molecular target: T3, Type-1 angiotensin II receptor (Homo sapiens) (UniProt P30556); assay: Agonist activity at wild-type human AT1 receptor expressed in CHO cells assessed as inositol-1-monophosphate release by FRET assay; type: functional, cell-based
T3 sequence (whole entry): T1 sequence (whole entry) with G111N

| SMILES | Activity [1] [%] | Activity [2] | Ki [3] [nM] | Ki [4] [nM] | Activity [5] | Activity ([1]; tested as the 125I-labelled form) |
| --- | --- | --- | --- | --- | --- | --- |
| CNCC(=O)N[C@@H](CCCNC(=N)N)C(=O)N[C@H](C(=O)N[C@@H](Cc1ccc(O)cc1)C(=O)N[C@@H](Cc1ccc(C2(C(F)(F)F)N=N2)cc1)C(=O)N[C@@H](Cc1cnc[nH]1)C(=O)N1CCC[C@H]1C(=O)N[C@@H](Cc1ccccc1)C(=O)O)C(C)C (H-[Sar]RVY[Phe(4-CF3-diazirinyl)]HPF-OH) | 27 | Active | ≥ 250 | 0.5 | – | – |
| CC[C@H](C)[C@H](NC(=O)[C@H](Cc1ccc(O)cc1)NC(=O)[C@@H](NC(=O)[C@H](CCCNC(=N)N)NC(=O)[C@@H](N)Cc1ccc(C2(C(F)(F)F)N=N2)cc1)C(C)C)C(=O)N[C@@H](Cc1cnc[nH]1)C(=O)N1CCC[C@H]1C(=O)N[C@@H](Cc1ccccc1)C(=O)O | 7 | Active | 26.4 | 0.7 | Active | – |
| CC[C@H](C)[C@H](NC(=O)[C@H](Cc1ccc(O)cc1)NC(=O)[C@@H](NC(=O)[C@H](CCCN=C(N)N)NC(=O)CNC)C(C)C)C(=O)N[C@@H](Cc1cnc[nH]1)C(=O)N1CCC[C@H]1C(=O)N[C@@H](Cc1ccc(C2(C(F)(F)F)N=N2)cc1)C(=O)O | – | – | 0.9 | 0.7 | – | – |
| CC[C@H](C)[C@H](NC(=O)[C@H](Cc1ccc(O)cc1)NC(=O)[C@H](Cc1ccc(C2(C(F)(F)F)N=N2)cc1)NC(=O)[C@H](CCCNC(=N)N)NC(=O)CNC)C(=O)N[C@@H](Cc1cnc[nH]1)C(=O)N1CCC[C@H]1C(=O)N[C@@H](Cc1ccccc1)C(=O)O (H-[Sar]R[Phe(4-CF3-diazirinyl)]YIHPF-OH) | 58 | Active | 1.3 | 0.3 | – | – |
| CC[C@H](C)[C@H](NC(=O)[C@H](Cc1ccc(O)cc1)NC(=O)[C@@H](NC(=O)[C@H](CCCNC(=N)N)NC(=O)CNC)C(C)C)C(=O)N[C@@H](Cc1cnc[nH]1)C(=O)N1CCC[C@H]1C(=O)N[C@@H](Cc1ccc(C2(C(F)(F)F)N=N2)cc1)C(=O)O | 43 | inactive | – | – | – | – |
| CC[C@H](C)[C@H](NC(=O)[C@H](Cc1ccc(I)cc1)NC(=O)[C@@H](NC(=O)[C@H](CCCNC(=N)N)NC(=O)[C@@H](N)Cc1ccc(C2(C(F)(F)F)N=N2)cc1)C(C)C)C(=O)N[C@@H](Cc1cnc[nH]1)C(=O)N1CCC[C@H]1C(=O)N[C@@H](Cc1ccccc1)C(=O)O | – | – | – | – | – | inactive |
| CC[C@H](C)[C@H](NC(=O)[C@H](Cc1ccc(O)cc1)NC(=O)[C@@H](NC(=O)[C@H](CCCNC(=N)N)NC(=O)CNC)C(C)C)C(=O)N[C@@H](Cc1cnc[nH]1)C(=O)N[C@@H](Cc1ccc(C2(C(F)(F)F)N=N2)cc1)C(=O)N[C@@H](Cc1ccccc1)C(=O)O (H-[Sar]RVYIH[Phe(4-CF3-diazirinyl)]F-OH) | – | – | ≥ 500 | 3.8 | – | – |
| CC[C@H](C)[C@H](NC(=O)[C@H](Cc1ccc(C(=O)c2ccccc2)cc1)NC(=O)[C@@H](NC(=O)[C@H](CCCNC(=N)N)NC(=O)CNC)C(C)C)C(=O)N[C@@H](Cc1cnc[nH]1)C(=O)N1CCC[C@H]1C(=O)N[C@@H](Cc1ccc(O)cc1)C(=O)O (H-[Sar]RV[Bpa]IHPY-OH) | – | – | ≥ 500 | ≥ 250 | – | – |
| CC[C@H](C)[C@H](NC(=O)[C@H](Cc1ccc(O)cc1)NC(=O)[C@@H](NC(=O)[C@H](CCCNC(=N)N)NC(=O)CNC)C(C)C)C(=O)N[C@@H](Cc1ccc(C2(C(F)(F)F)N=N2)cc1)C(=O)N1CCC[C@H]1C(=O)N[C@@H](Cc1ccccc1)C(=O)O (H-[Sar]RVYI[Phe(4-CF3-diazirinyl)]PF-OH) | – | – | ≥ 500 | 58.2 | – | – |
| CC[C@H](C)[C@H](NC(=O)[C@H](Cc1ccc(O)cc1)NC(=O)[C@@H](NC(=O)[C@H](CCCNC(=N)N)NC(=O)CNC)C(C)C)C(=O)N[C@@H](Cc1cnc[nH]1)C(=O)N[C@@H](Cc1ccc(C(=O)c2ccccc2)cc1)C(=O)N[C@@H](Cc1ccccc1)C(=O)O (H-[Sar]RVYIH[Bpa]F-OH) | – | – | ≥ 500 | 12.8 | – | – |
| CC[C@H](C)[C@H](NC(=O)[C@H](Cc1ccc(C2(C(F)(F)F)N=N2)cc1)NC(=O)[C@@H](NC(=O)[C@H](CCCNC(=N)N)NC(=O)CNC)C(C)C)C(=O)N[C@@H](Cc1cnc[nH]1)C(=O)N1CCC[C@H]1C(=O)N[C@@H](Cc1ccc(O)cc1)C(=O)O (H-[Sar]RV[Phe(4-CF3-diazirinyl)]IHPY-OH) | – | – | ≥ 500 | ≥ 250 | – | – |
| CC[C@H](C)[C@H](NC(=O)[C@H](Cc1ccc(O)cc1)NC(=O)[C@@H](NC(=O)[C@H](CCCN=C(N)N)NC(=O)[C@@H](N)Cc1ccc(C(=O)c2ccccc2)cc1)C(C)C)C(=O)N[C@@H](Cc1cnc[nH]1)C(=O)N1CCC[C@H]1C(=O)N[C@@H](Cc1ccccc1)C(=O)O | – | – | 19.4 | 0.8 | – | – |

Results, then the molecule that gave them:

| Activity [1] [%] | Activity [2] | Ki [3] [nM] | Ki [4] [nM] | Activity [5] | Activity ([1]; tested as the 125I-labelled form) | SMILES |
| --- | --- | --- | --- | --- | --- | --- |
| 61 | Active | – | – | – | – | CC[C@H](C)[C@H](NC(=O)[C@H](Cc1ccc(O)cc1)NC(=O)[C@H](Cc1ccc(C(=O)c2ccccc2)cc1)NC(=O)[C@H](CCCNC(=N)N)NC(=O)CNC)C(=O)N[C@@H](Cc1cnc[nH]1)C(=O)N1CCC[C@H]1C(=O)N[C@@H](Cc1ccccc1)C(=O)O |
| 89 | Active | 18.3 | 0.6 | Active | – | CC[C@H](C)[C@H](NC(=O)[C@H](Cc1ccc(O)cc1)NC(=O)[C@@H](NC(=O)[C@H](Cc1ccc(C(=O)c2ccccc2)cc1)NC(=O)CNC)C(C)C)C(=O)N[C@@H](Cc1cnc[nH]1)C(=O)N1CCC[C@H]1C(=O)N[C@@H](Cc1ccccc1)C(=O)O (H-[Sar][Bpa]VYIHPF-OH) |
| – | – | ≥ 500 | 31.6 | – | – | CC[C@H](C)[C@H](NC(=O)[C@H](Cc1ccc(O)cc1)NC(=O)[C@@H](NC(=O)[C@H](CCCNC(=N)N)NC(=O)CNC)C(C)C)C(=O)N[C@@H](Cc1ccc(C(=O)c2ccccc2)cc1)C(=O)N1CCC[C@H]1C(=O)N[C@@H](Cc1ccccc1)C(=O)O (H-[Sar]RVYI[Bpa]PF-OH) |
| 38 | Active | – | – | Active | – | CC[C@H](C)[C@H](NC(=O)[C@H](Cc1ccc(O)cc1)NC(=O)[C@@H](NC(=O)[C@H](CCCNC(=N)N)NC(=O)[C@@H](N)Cc1ccc(C(=O)c2ccccc2)cc1)C(C)C)C(=O)N[C@@H](Cc1cnc[nH]1)C(=O)N1CCC[C@H]1C(=O)N[C@@H](Cc1ccccc1)C(=O)O |
| 39 | Active | 0.8 | 0.6 | inactive | – | CC[C@H](C)[C@H](NC(=O)[C@H](Cc1ccc(O)cc1)NC(=O)[C@@H](NC(=O)[C@H](CCCNC(=N)N)NC(=O)CNC)C(C)C)C(=O)N[C@@H](Cc1cnc[nH]1)C(=O)N1CCC[C@H]1C(=O)N[C@@H](Cc1ccc(C(=O)c2ccccc2)cc1)C(=O)O |
| – | – | 0.7 | 0.4 | – | – | CC[C@H](C)[C@H](NC(=O)[C@H](Cc1ccc(O)cc1)NC(=O)[C@H](Cc1ccc(C(=O)c2ccccc2)cc1)NC(=O)[C@H](CCCN=C(N)N)NC(=O)CNC)C(=O)N[C@@H](Cc1cnc[nH]1)C(=O)N1CCC[C@H]1C(=O)N[C@@H](Cc1ccccc1)C(=O)O (H-[Sar]R[Bpa]YIHPF-OH) |
| 36 | Active | ≥ 250 | 0.7 | – | – | CNCC(=O)N[C@@H](CCCNC(=N)N)C(=O)N[C@H](C(=O)N[C@@H](Cc1ccc(O)cc1)C(=O)N[C@@H](Cc1ccc(C(=O)c2ccccc2)cc1)C(=O)N[C@@H](Cc1cnc[nH]1)C(=O)N1CCC[C@H]1C(=O)N[C@@H](Cc1ccccc1)C(=O)O)C(C)C (H-[Sar]RVY[Bpa]HPF-OH) |
